Source: patent US10849926B2, “GM3-promoted inflammation inhibitor and inflammatory cytokine production inhibitor” (THE NOGUCHI INSTITUTE, priority 2015, dated 2020)

How the values were obtained:
Type in all cases: cell-based
human monocytes = assay: IL-6 production in human monocytes by LPS with or without GM3C22 or GM3C24 (ELISA)
Description: (§1) Human peripheral blood-derived monocytes (CD14 positive cells) were cultured in DMEM (Low Glucose) containing 0.5% FCS and 25 ng/mL of granulocyte/macrophage colony stimulating factor, and co-stimulated with 0.125 ng/mL of E. coli-derived lipopolysaccharide (LPS, E. coli O111:B4), and 1.25, 2.5, or 5.0 μM of N-mix (neutral glycosphingolipid mixture (Glc-Cer, Lac-Cer, Gb3, and Gb4)) or each of the ganglioside molecular species. 18 hours later, the inflammatory cytokines (IL-6, IL-1β, and TNF-α) secreted in the culture supernatant were quantitated using the ELISA method.
Under the same culture conditions as in Example 5, “GM3C16”, “GM3C18” or “GM3C24:1” which inhibited inflammation was combined to “GM3C22” or “GM3C24” which promoted inflammation. The resultant combination was added to the monocytes and further stimulated with 0.06 ng/mL of LPS (i.e., a TLR4 activating factor). 18 hours later, the inflammatory cytokine IL-6 secreted in the culture supernatant was quantitated using the ELISA method.

TLR4 and TLR2 = assay: IL-6 production in human monocytes stimulated with HMGB1 (TLR4 and TLR2 activating factor); details: HMGB 1 5.0 μg/mL, 5 μM GM3 molecular species, 18 hours (FIG. 12)
Description: as §1
(§2) Then, under the same culture conditions as in Example 5, human monocytes were stimulated using any of 0.125 ng/mL of LPS (i.e., TLR4 activating factor), 5.0 μg/mL of high mobility group box 1 (HMGB 1) (i.e., a TLR4 and TLR2 activating factors), 20 ng/mL of Pam3Csk4 (i.e., a TLR1 and TLR2 activating factors), 1.0 ng/mL of MALP-2 (i.e., TLR2 and TLR6 activating factors), 50 ng/mL of Flagellin (i.e., a TLR5 activating factor), and 250 ng/mL of R-848 (i.e., TLR7 and TLR8 activating factors); and 5 μM of GM3 molecular species. 18 hours later, the inflammatory cytokine IL-6 secreted in the culture supernatant was quantitated using the ELISA method.

TLR4 = assay: IL-6 production in human monocytes stimulated with LPS (TLR4 activating factor); details: LPS 0.125 ng/mL, 5 μM GM3 molecular species, 18 hours (FIG. 12)
Description: as §1, §2

[1] = test system: Human peripheral blood-derived monocytes (CD14 positive cells); assay: LPS-dependent inflammatory cytokine production in human peripheral blood-derived monocytes (ELISA); details: LPS 0.125 ng/mL + 1.25, 2.5, or 5.0 μM ganglioside
Description: as §1

TLR1 and TLR2 = assay: IL-6 production in human monocytes stimulated with Pam3Csk4 (TLR1 and TLR2 activating factor); details: Pam3Csk4 20 ng/mL, 5 μM GM3 molecular species, 18 hours (FIG. 12)
Description: as §1, §2

CCCCCCCCCCCCCC=CC(O)C(COC1OC(CO)C(OC2OC(CO)C(O)C(OC3(C(=O)O)CC(O)C(NC(C)=O)C(C(O)C(O)CO)O3)C2O)C(O)C1O)NC(=O)CCCCCCCCCCCCCCCCC (centres unmarked) [GM3C18]
production of IL-6 in response to stimulation promoted by the addition of GM3C22 and GM3C24 (human monocytes; LPS 0.06 ng/mL + GM3C22 or GM3C24, 18 hours (FIG. 11)): strongly inhibited
production of IL-6 in response to LPS stimulation (human monocytes; LPS 0.06 ng/mL only, 18 hours (FIG. 11)): strongly inhibited
IL-6 production by HMGB1 (TLR4 and TLR2): inhibitory action
IL-6 production by LPS (TLR4): inhibitory action
production of IL-6 by LPS ([1]; 18 hours (FIG. 8)): inhibiting
production of IL-1β by LPS ([1]; 18 hours (FIG. 9)): inhibiting
production of TNF-α by LPS ([1]; 18 hours (FIG. 10)): inhibiting
IL-6 production by Pam3Csk4 (TLR1 and TLR2): inhibitory action was also observed
